# In ChEMBL document CHEMBL1143254, “Structure-based design of novel 2-amino-6-phenyl-pyrimido[5',4':5,6]pyrimido[1,2-a]benzimidazol-5(6H)-ones as potent and orally active inhibitors of lymphocyte specific kinase (Lck): synthesis, SAR, and in vivo anti-inflammatory activity” (J Med Chem, 2008):
# pIC50: −log10 of the molar value.
# How the values were obtained:
# [1] = molecular target: Proto-oncogene tyrosine-protein kinase Src (Homo sapiens, UniProt P12931); assay: Inhibition of Src by HTRF assay
# Chain of Proto-oncogene tyrosine-protein kinase Src (P12931 2-536 limits assumed): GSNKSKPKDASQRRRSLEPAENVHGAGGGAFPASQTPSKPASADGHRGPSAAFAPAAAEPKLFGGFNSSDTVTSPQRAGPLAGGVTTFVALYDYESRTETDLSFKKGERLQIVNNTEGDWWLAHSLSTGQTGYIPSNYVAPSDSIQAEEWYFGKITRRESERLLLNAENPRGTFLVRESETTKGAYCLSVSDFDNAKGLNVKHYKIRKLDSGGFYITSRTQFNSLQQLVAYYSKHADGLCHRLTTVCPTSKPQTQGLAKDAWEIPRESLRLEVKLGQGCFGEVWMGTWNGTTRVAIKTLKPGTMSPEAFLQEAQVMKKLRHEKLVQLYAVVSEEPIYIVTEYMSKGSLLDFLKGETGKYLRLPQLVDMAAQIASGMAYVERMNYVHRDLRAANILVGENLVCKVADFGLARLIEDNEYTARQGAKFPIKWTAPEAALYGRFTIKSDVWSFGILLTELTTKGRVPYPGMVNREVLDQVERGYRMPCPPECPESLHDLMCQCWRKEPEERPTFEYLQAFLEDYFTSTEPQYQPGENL
# [2] = molecular target: Mitogen-activated protein kinase 14 (Homo sapiens, UniProt Q16539); assay: Inhibition of p38-alpha by HTRF assay
# Chain of Mitogen-activated protein kinase 14 (Q16539 whole entry): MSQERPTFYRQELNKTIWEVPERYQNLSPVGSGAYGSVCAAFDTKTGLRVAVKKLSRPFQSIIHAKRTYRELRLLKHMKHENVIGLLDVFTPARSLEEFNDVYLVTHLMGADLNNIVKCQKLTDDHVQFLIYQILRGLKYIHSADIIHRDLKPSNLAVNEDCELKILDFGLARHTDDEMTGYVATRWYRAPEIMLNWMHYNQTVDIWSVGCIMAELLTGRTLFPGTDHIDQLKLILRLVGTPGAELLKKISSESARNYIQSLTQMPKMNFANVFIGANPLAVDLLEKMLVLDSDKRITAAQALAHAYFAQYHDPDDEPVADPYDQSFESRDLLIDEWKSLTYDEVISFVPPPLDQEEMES
# Lymphocyte = assay: Inhibition of T cell activation in human peripheral blood lymphocytes by mixed lymphocyte reaction; format: functional, cell-based
# [3] = molecular target: Tyrosine-protein kinase Lck (Homo sapiens, UniProt P06239)
# Chain of Tyrosine-protein kinase Lck (P06239 whole entry): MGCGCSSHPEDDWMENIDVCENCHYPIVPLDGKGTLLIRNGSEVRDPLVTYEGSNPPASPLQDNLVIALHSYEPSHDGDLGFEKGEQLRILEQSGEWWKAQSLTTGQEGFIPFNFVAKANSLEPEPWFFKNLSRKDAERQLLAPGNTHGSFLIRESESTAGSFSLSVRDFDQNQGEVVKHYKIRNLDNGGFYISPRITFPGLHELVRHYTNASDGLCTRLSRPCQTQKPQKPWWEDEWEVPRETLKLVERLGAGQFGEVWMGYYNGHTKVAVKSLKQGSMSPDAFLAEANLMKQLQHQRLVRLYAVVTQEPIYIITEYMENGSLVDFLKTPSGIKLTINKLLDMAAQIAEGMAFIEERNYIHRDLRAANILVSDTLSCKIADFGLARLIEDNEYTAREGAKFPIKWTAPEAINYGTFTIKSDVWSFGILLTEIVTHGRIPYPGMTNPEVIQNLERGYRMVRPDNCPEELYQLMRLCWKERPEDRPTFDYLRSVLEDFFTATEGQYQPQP
# Description: Inhibition of Lck by HTRF assay
# [4] = molecular target: Vascular endothelial growth factor receptor 2 (Homo sapiens, UniProt P35968); assay: Inhibition of KDR by HTRF assay
# Chain of Vascular endothelial growth factor receptor 2 (P35968 whole entry): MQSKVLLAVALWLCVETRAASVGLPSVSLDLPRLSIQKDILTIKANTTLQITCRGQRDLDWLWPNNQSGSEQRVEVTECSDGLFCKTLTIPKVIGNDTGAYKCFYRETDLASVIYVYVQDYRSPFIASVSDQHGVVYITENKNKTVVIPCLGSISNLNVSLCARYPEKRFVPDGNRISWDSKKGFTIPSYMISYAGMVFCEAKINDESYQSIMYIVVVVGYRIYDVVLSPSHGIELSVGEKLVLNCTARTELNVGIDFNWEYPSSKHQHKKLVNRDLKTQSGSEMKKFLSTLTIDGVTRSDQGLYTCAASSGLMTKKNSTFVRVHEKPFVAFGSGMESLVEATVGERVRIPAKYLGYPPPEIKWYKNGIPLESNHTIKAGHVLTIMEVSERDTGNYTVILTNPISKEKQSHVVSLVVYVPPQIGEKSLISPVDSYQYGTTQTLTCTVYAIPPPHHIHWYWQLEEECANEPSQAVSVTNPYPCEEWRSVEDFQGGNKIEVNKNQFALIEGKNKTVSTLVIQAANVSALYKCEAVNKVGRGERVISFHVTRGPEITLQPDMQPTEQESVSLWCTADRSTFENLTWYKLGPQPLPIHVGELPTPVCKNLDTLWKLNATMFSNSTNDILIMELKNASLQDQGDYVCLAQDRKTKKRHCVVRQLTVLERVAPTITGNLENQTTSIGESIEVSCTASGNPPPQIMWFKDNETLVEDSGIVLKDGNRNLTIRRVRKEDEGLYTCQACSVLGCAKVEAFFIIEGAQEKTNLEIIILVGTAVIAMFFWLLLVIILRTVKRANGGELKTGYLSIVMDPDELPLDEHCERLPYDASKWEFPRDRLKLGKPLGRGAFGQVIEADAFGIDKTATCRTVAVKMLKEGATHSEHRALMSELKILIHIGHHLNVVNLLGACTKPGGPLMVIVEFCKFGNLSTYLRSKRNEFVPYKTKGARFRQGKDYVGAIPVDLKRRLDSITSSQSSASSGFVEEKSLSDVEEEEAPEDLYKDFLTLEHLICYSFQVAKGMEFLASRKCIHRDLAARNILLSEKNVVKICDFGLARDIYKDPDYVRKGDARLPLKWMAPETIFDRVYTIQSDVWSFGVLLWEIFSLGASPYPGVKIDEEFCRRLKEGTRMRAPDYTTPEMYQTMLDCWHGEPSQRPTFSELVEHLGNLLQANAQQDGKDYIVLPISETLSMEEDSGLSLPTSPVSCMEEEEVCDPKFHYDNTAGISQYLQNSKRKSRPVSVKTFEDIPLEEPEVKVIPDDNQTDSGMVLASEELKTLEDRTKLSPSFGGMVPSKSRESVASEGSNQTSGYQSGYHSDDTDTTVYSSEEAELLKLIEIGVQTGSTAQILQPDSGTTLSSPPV
# T-cell = assay: Inhibition of anti-CD3/CD28-induced IL2 production in human T cells; format: functional, cell-based
# [5] = Solubility in simulated intestinal fluid at pH 6.8; format: physicochemical
SMILES,pIC50 [1],pIC50 [2],pIC50 (Lymphocyte),pIC50 [3],pIC50 [4],pIC50 (T-cell),solubility [5]
CN1CCN(c2ccc(Nc3ncc4c(=O)n(-c5c(Cl)cc(Cl)cc5Cl)c5nc6ccccc6n5c4n3)cc2)CC1,7.46,< 5.00,6.85,8.10,6.32,,
COc1cc(Nc2ncc3c(=O)n(-c4c(C)cccc4C)c4nc5ccccc5n4c3n2)cc(OC)c1OCCCN1CCN(C)CC1,7.15,< 5.00,7.10,8.22,5.40,6.72,
COc1cc(Nc2ncc3c(=O)n(-c4c(C)cccc4C)c4nc5ccccc5n4c3n2)cc(OC)c1OCCN1CCN(C)CC1,7.11,< 5.00,6.54,8.22,5.48,6.21,> 200 µg/mL
COc1cccc(-n2c(=O)c3cnc(Nc4ccc(N5CCN(C)CC5)cc4)nc3n3c4ccccc4nc23)c1,5.72,,,6.72,5.08,,
Cc1cccc(C)c1-n1c(=O)c2cnc(Nc3ccc(OCCCN(C)C)cc3)nc2n2c3ccccc3nc12,6.44,< 5.00,7.00,,5.38,5.96,155 µg/mL
Cc1ccc(-n2c(=O)c3cnc(Nc4ccc(N5CCN(C)CC5)cc4)nc3n3c4ccccc4nc23)cc1,5.77,,,6.46,< 4.60,,
COc1cc(Nc2ncnc(-n3c(Nc4c(C)cccc4C)nc4ccccc43)n2)cc(OC)c1OC,,7.11,,9.00,8.40,,
COc1cc(Nc2ncc3c(=O)n(-c4c(C)cccc4C)c4nc5ccccc5n4c3n2)cc(OC)c1OC,6.68,< 5.00,6.33,7.57,5.72,6.01,15 µg/mL
COc1cc(Nc2ncnc(-n3c(Nc4ccccc4)nc4ccccc43)n2)cc(OC)c1OC,,6.33,,,,,
COc1cc(Nc2ncc3c(=O)n(-c4c(C)cccc4C)c4nc5ccccc5n4c3n2)ccc1N1CCN(C)CC1,7.00,5.12,7.29,8.30,5.44,6.37,> 200 µg/mL
